Measured values published in US9107954B2, “Bivalent ligands for the treatment of neurological disorders” (Virginia Commonwealth University, priority 2012, dated 2015).

Experiments:
[1] = tested on: CCR5 and MOR; experiment: Flow cytometry of CCR5 and MOR co-localization in HIV-1 infected primary human astrocytes; assay type: cell-based
Method: MOR and CCR5 immunoreactivity were detected by direct immunofluorescence in astroglial cells by flow cytometric analysis. Cells were washed in phosphate-buffered saline (PBS)-0.1% bovine serum albumin (BSA) buffer and incubated with primary MOR antibody followed by a secondary antibody conjugated to allophycocyanin (APC) (Biolegend, Inc; catalog #408001) and Alexa Fluor® 488 conjugated anti-mouse CD195 (CCR5) antibody (Biolegend, Inc; catalog #107008) in permeabilization buffer (PBS-0.1% BSA-0.1% Triton X-100) at a 1:500 dilution. Fluorescence was measured from 10,000 gated cells per treatment in each experiment using a FACSCanto II flow cytometer (BD Biosciences, San Jose, Calif.). Auto-fluorescence was compensated by setting the detector voltage to the minimum level that discriminates between auto-fluorescence and specific immunofluorescence in both negative and positive controls. Isotype control antibodies were used to define settings in histogram plot analyses.
We quantitatively analyzed the effect of MVC and the bivalent compound on CCR5 and MOR expression levels in virally infected astrocytes by flow cytometry. […] Approximately 20,000 events were analyzed per treatment condition in each experiment and size discrimination was used as a crude method for viability determination.

[2] = tested on: RANTES; experiment: Chemokine release ELISA, HIV-1 infected astroglia supernatant: RANTES; assay type: cell-based, human; settings: 18-20 h; bivalent ligand ± morphine
Method: (§1) The protein levels of the cytokines TNF-α, IL-6, IL-1β and the chemokine RANTES were measured by ELISA (Quantikine kits; R&D Systems Minneapolis, Minn.).
(§2) After 18-20 h exposure, supernatant was removed and analyzed by ELISA to quantitatively analyze the release of the cytokines TNF-α, IL-1β and IL-6 and the chemokine RANTES.

[3] = target: CCR5 (Macaca mulatta (Rhesus macaque), UniProt P61813); experiment: CCR5 competitive radioligand binding, [125I]MIP-1α, Chem-1 cell membrane preparations; settings: mean of three experiments, read-out: Radioligand binding Ki ± SEM
Method: Afterwards, the pharmacological profile of bivalent ligand 1 at the chemokine receptor CCR5 was characterized similarly. The competitive radioligand binding assay was conducted in CCR5 rhesus macaque membrane preparations from Chem-1 cells.

[4] = tested on: IL-6; experiment: Cytokine release ELISA, HIV-1 infected astroglia supernatant: IL-6; assay type: cell-based, human; settings: 18-20 h; bivalent ligand ± morphine
Method: as §1, §2

[5] = target: MOR (Homo sapiens (Human), UniProt P35372); experiment: Calcium mobilization assay, CCR5-MOR CHO co-expressed cell line (Gqi5), DAMGO-stimulated; assay type: cell-based
Method: (§3) Having a cell line that consistently expresses both CCR5 and MOR was essential for studying how the two receptors interact with each other using calcium mobilization assays and cell fusion assays. A previously established MOR Chinese hamster ovarian (CHO) cell line was transfected with a plasmid containing CCR5 tagged with a yellow fluorescent protein on its N-terminus (CCR5-YFP). ^1 After 48 hours cells were sorted based upon the presence of the yellow fluorescent protein tag using a flow cytometer. Cells containing the tagged receptors were then cultured and used in the subsequent assays.
(§4) Calcium mobilization is directly related to G protein-coupled receptor (GPCR) activation and therefore is a useful technique to study the functional activity of new ligands.

[6] = tested on: fusion of CCR5-MOR CHO target cells (CD4) with HEK effector cells (HIV-1 gp140); assay type: cell-based
[7] = tested on: R5-tropic HIV-1Bal Vpr-GFP in primary astroglial cells; experiment: Confocal microscopy of HIV-1Bal Vpr-GFP entry into astroglial cells; assay type: cell-based; settings: 100 nM, 18 to 20 h
Method: For direct visualization of viral entry, fluorescent HIV-1 particles were generated by co-transfection of a vector containing a full-length R5-tropic HIV-1 provirus (NIH AIDS Research & Reference Reagent Program, Division of AIDS, NIAID, NIH: pWT/BaL (catalog #11414) and Vpr-GFP into HEK-293T cells as described in [9]. Primary astroglial cells were infected with the HIV-1 Vpr-GFP particles in the absence or presence of 100 nM bivalent ligand for 18 to 20 h at 37° C., washed in PBS, fixed with 4% paraformaldehyde, and counterstained with DAPI. Cells were imaged using a Zeiss LSM 700 laser scanning confocal microscope equipped with a 63×(1.42 numerical aperture [NA]) objective, using 488-nm laser excitation with dichroic beam-splitter set at 492 nm to optimize GFP detection.

[8] = target: mu opioid receptor (MOR) (Homo sapiens (Human), UniProt P35372); experiment: MOR competitive radioligand binding, [3H]naloxone, hMOR-expressed CHO cells; settings: Example 1, read-out: binding affinity to the mu opioid receptor, Ki
Method: MOR/CHO cell culture and membrane homogenate preparation followed literature report^52.
Saturation binding was performed by incubating membranes for 90 minutes at 30° C. with 0.5-15 nM [^3H]naloxone in assay buffer in a 0.5 mL volume. […] The reaction was terminated by rapid filtration through Whatman GF/B glass fiber filters, followed by 3 washes with 3 mL ice-cold Tris buffer. Bound radioactivity will be determined by liquid scintillation spectrophotometry at 45% efficiency for [^3H].
For competition binding assay (agonists or antagonists), Hill plots linear regression analysis and the Cheng-Prusoff equation were applied to determine the IC50 and Ki values. In [^35S]GTPγS binding assays, agonist concentration effect curves were fit by non-linear regression to obtain Emax and EC50 values; antagonist inhibition of agonist-stimulated [^35S]GTPγS binding was analyzed by Hill analysis and AD50 values were corrected to Ki values using the Cheng-Prusoff equation. All analyses were using Prism 4.0.
Herein is reported the characterization of this novel molecular probe in for its binding affinity, Ca^2+ flux functional activity, and HIV-1 inhibition potency.

[9] = target: CCR5 (Homo sapiens (Human), UniProt P51681); experiment: Calcium mobilization assay, CCR5-MOR CHO co-expressed cell line (Gqi5), RANTES-stimulated; assay type: cell-based; settings: cells stimulated with RANTES
Method: as §3, §4

[10] = tested on: HIV-1 in microglia; experiment: HIV-1 entry in microglia (data not shown); assay type: cell-based; settings: at the concentrations used (100 nM)
[11] = tested on: TNF-α; experiment: Cytokine release ELISA, HIV-1 infected astroglia supernatant: TNF-α; assay type: cell-based, human; settings: 18-20 h; bivalent ligand ± morphine
Method: as §1, §2

Chain of CCR5 (Homo sapiens (Human), UniProt P51681) (P51681 whole entry): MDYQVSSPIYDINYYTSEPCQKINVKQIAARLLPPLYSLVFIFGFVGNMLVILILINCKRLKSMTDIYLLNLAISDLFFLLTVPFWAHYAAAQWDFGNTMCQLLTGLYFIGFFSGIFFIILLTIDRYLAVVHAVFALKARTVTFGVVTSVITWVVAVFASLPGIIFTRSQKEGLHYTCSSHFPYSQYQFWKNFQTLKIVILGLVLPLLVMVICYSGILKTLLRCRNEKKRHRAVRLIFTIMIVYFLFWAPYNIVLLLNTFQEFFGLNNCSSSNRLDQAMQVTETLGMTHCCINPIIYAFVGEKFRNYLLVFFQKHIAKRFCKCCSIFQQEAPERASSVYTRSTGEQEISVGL

SMILES: Cc1nnc(C(C)C)n1C1CC2CCC(C1)N2CC[C@H](NC(=O)C1CCC(F)(F)CC1)c1ccc(NC(=O)COCC(=O)NCCCCCCCNC(=O)COCC(=O)N[C@@H]2CC[C@@]3(O)[C@H]4Cc5ccc(O)c6c5[C@@]3(CCN4CC3CC3)[C@H]2O6)cc1 (stereo partly drawn) [bivalent ligand 1]
- fold increase in astrocytes expressing both CCR5 and MOR compared to R5 HIV-1 alone [1]: 1.6 fold
- fold decrease in RANTES release compared to R5 HIV-1 alone [2]: 1.5 fold
- Ki [3]: 0.239 ± 0.056 µM
- fold decrease in IL-6 release compared to R5 HIV-1 alone [4]: 1.6 fold
- IC50 [5]: 0.03 ± 0.00244 µM
- effect on cell fusion ([6]; 1 at 3000 nM, 2 at 10000 nM, maraviroc at 100 nM): significantly lowered cell fusion
- amplification of cell fusion inhibition when morphine present ([6]; morphine 300 nM): 2 fold
- viral entry by confocal microscopy [7]: abolished viral entry
- Ki [8]: 0.0518 ± 0.0079 µM
- IC50 [9]: 6.24 ± 0.251 µM
- antiviral effect in microglia [10]: only detected in astrocytes and not in microglia
- fold decrease in TNF-α release compared to R5 HIV-1 alone [11]: 2.0 fold
